This note sets out measurements from ChEMBL document CHEMBL1795246, “Phenyl isoxazole voltage-gated sodium channel blockers: structure and activity relationship” (Bioorg Med Chem Lett, 2011).

Structures are written as SMILES. In brackets after ≈: the same amount, converted by molar mass.

Data set [1] in a line: Tmax in Sprague-Dawley rat at 10 umol/kg, po. The following applies: in vivo. Format: ADME, organism-based.
Data set [2] can be described thus: Cmax in Sprague-Dawley rat at 10 umol/kg, po. In kind it is ADME, organism-based. On the set-up: dose 10 umol/kg, route oral. The following applies: in vivo.
The nature of data set [3]: Volume of distribution at steady state in Sprague-Dawley rat at 3 umol/kg, iv. Format: ADME, organism-based. As to conditions: in vivo, read-out: Vdss.
Data set [4] is described as follows: Terminal half life in Sprague-Dawley rat at 3 umol/kg, iv. Format: ADME, organism-based. As to conditions: in vivo, read-out: beta t1/2 (converted).
The target of data set [5] is Voltage-gated inwardly rectifying potassium channel KCNH2 (Homo sapiens, UniProt Q12809). Kind of data set: Inhibition of human ERG.
Chain of Voltage-gated inwardly rectifying potassium channel KCNH2 (Q12809 whole entry): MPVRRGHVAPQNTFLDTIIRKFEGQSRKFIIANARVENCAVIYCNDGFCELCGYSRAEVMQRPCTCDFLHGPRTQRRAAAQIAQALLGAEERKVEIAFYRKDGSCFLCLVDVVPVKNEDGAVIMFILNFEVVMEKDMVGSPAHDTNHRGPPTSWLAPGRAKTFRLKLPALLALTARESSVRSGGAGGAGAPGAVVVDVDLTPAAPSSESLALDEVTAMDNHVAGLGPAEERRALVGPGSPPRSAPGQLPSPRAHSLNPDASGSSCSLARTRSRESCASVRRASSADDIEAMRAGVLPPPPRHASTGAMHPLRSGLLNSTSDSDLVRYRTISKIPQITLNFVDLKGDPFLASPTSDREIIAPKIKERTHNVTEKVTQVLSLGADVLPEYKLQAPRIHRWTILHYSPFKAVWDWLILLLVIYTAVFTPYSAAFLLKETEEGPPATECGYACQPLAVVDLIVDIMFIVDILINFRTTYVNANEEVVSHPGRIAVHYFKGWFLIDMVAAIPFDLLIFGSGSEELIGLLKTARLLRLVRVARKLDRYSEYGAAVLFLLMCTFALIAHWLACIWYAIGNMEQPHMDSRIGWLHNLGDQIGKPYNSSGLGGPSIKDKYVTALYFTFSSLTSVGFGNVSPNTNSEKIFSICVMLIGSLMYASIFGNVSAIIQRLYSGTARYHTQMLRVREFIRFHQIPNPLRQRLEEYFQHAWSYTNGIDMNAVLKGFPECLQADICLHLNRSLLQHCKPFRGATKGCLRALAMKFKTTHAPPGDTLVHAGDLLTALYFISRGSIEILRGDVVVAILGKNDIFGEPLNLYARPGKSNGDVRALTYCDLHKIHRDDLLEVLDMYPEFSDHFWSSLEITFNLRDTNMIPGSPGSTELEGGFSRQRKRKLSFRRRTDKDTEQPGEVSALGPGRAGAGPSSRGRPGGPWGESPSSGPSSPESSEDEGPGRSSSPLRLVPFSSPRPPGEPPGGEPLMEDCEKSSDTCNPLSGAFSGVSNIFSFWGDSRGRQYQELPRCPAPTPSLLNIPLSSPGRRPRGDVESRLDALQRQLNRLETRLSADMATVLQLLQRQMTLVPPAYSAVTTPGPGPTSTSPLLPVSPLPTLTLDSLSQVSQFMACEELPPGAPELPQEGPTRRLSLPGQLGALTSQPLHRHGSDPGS
Data set [6] is described as follows: Solubility of the compound. In kind it is physicochemical.
For data set [7], the target named is Sodium channel protein type 5 subunit alpha (Homo sapiens, UniProt Q14524). Kind of data set: Inhibition of Nav1.5 by cell based whole-cell voltage clamp electrophysiology assay.
Chain of Sodium channel protein type 5 subunit alpha (Q14524 whole entry): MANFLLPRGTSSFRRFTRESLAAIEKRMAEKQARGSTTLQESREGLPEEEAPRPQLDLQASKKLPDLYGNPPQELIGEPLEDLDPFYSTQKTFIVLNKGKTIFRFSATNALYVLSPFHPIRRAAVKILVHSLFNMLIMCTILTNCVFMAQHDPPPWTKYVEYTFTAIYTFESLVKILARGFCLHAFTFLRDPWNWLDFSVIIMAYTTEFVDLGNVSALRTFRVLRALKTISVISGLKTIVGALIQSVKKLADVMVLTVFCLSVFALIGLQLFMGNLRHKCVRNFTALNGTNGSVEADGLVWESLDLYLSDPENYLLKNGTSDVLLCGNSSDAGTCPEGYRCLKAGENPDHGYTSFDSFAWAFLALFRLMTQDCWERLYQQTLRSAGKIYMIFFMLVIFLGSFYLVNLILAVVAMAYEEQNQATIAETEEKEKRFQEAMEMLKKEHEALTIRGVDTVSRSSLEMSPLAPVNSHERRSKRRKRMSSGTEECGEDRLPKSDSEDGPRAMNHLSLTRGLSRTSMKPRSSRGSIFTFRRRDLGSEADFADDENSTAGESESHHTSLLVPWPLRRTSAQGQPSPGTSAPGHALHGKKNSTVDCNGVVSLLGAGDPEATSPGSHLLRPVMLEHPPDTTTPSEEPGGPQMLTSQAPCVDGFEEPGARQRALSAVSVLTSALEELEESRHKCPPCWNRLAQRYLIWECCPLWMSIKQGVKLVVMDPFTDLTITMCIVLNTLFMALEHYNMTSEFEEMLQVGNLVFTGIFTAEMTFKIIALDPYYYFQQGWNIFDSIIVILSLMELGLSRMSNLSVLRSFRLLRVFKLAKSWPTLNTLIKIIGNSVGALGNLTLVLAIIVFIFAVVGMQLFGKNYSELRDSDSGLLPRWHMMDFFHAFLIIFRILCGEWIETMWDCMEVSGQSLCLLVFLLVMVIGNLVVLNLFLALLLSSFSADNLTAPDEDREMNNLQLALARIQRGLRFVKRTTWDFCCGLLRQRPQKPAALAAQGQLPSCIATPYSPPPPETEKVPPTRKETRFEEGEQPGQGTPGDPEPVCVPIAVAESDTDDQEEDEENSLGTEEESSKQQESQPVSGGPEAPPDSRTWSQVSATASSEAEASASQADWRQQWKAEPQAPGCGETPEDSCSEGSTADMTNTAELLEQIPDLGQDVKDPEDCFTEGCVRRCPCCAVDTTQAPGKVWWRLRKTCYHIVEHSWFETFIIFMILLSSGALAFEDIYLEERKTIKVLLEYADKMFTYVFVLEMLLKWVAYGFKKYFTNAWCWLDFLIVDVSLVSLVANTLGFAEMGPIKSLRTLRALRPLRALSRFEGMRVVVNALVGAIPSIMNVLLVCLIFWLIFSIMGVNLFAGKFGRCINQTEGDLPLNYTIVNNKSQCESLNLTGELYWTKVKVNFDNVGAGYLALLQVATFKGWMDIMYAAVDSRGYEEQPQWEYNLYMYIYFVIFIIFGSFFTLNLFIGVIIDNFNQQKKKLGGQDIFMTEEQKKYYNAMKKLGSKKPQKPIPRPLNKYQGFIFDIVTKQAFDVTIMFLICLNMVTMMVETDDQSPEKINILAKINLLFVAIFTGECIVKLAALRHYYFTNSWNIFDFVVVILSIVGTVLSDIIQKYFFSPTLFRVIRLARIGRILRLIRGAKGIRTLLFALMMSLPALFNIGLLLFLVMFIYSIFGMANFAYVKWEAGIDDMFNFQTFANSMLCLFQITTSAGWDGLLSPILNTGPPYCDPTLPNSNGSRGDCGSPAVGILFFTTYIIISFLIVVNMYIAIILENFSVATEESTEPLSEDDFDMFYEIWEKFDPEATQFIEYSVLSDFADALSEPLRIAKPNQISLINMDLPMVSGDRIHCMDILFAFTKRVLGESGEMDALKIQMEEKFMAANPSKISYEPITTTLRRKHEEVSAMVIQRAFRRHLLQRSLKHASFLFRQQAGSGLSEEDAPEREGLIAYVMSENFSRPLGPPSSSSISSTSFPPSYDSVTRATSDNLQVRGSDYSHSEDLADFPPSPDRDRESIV
Data set [8] has as its system Rattus norvegicus. Kind of data set: Dose normalized AUC in Sprague-Dawley rat at 3 umol/kg, iv. As to conditions: in vivo. In kind it is ADME, organism-based.
A short description of data set [9]: Clearance in Sprague-Dawley rat at 3 umol/kg, iv. The following applies: in vivo. In kind it is ADME, organism-based.
A short description of data set [10]: Oral bioavailability in Sprague-Dawley rat at 10 umol/kg. In kind it is ADME, organism-based. The following applies: in vivo.
The target in data set [11] is Sodium channel protein type 9 subunit alpha (Homo sapiens, UniProt Q15858). Nature of the data set: Inhibition of Nav1.7 by cell based whole-cell voltage clamp electrophysiology assay.
Chain of Sodium channel protein type 9 subunit alpha (Q15858 whole entry): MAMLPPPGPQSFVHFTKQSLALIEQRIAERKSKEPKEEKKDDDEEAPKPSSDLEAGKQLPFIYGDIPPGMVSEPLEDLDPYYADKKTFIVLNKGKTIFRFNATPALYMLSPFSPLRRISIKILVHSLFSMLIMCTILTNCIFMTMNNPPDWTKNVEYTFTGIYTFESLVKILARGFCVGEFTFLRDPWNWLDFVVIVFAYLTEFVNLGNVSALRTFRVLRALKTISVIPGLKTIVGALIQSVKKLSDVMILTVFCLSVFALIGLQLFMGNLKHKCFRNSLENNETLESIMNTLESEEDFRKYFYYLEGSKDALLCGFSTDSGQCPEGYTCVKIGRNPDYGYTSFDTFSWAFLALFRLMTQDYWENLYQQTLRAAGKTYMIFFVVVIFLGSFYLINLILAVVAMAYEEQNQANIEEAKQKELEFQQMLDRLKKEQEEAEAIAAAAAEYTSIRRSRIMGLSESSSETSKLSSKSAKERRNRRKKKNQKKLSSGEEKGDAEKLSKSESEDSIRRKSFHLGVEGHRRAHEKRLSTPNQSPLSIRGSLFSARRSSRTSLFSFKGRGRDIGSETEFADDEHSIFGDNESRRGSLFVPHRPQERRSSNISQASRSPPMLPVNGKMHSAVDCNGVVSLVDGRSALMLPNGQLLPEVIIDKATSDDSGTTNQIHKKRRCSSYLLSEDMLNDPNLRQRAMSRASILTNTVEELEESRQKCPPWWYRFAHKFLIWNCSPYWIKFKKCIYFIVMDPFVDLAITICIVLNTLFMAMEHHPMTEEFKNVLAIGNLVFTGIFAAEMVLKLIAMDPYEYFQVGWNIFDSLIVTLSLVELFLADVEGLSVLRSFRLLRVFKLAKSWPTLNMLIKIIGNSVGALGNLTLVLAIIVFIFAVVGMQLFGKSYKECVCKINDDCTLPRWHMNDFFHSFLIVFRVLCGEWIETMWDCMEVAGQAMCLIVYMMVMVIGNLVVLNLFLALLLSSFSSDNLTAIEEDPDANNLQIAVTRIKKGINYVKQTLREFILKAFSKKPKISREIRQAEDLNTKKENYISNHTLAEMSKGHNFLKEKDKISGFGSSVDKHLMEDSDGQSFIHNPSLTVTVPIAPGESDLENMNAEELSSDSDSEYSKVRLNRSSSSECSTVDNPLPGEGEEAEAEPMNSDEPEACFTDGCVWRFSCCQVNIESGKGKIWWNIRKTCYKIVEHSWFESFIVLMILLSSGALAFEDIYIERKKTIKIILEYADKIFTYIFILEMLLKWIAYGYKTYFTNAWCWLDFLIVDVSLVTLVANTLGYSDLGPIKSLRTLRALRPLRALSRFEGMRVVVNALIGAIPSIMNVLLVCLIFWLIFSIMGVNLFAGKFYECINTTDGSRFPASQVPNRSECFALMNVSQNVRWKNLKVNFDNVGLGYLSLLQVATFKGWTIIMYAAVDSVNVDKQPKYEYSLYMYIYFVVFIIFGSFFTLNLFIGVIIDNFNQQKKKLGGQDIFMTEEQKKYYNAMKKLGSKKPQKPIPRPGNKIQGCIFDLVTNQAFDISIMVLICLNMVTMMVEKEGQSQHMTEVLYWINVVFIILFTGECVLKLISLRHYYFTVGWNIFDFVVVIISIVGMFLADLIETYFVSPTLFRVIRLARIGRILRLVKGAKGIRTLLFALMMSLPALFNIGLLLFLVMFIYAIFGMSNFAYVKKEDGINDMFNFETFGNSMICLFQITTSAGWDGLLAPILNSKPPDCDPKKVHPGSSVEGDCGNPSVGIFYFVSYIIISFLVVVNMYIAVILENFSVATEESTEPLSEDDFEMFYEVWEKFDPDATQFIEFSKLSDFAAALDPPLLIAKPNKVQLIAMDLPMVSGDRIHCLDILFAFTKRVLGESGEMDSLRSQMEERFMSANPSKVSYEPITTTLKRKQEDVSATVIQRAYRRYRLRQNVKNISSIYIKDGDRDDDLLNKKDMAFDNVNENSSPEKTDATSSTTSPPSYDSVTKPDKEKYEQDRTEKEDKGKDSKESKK
For data set [12], the system named is Rattus norvegicus. Nature of the data set: Dose normalized AUC in Sprague-Dawley rat at 10 umol/kg, po. Format: ADME, organism-based. The following applies: in vivo.
Data set [13] is described as follows: Intrinsic clearance in rat liver microsomes. Format: ADME, Microsome.
Data set [14] in a line: Intrinsic clearance in human liver microsomes. In kind it is ADME, Microsome.
Data set [15] is described as follows: Half life in Sprague-Dawley rat at 10 umol/kg, po. In kind it is ADME, organism-based. As to conditions: in vivo.

The term Tmax denotes the time at which the peak concentration occurs. As usually defined, the Cmax is the peak of the concentration-time curve. By IC50 is commonly meant the concentration at which inhibition is half-maximal. Higher therefore signals lower potency. By solubility is commonly meant the dissolved amount per volume that the medium holds. Read a low solubility as little dissolved substance. Broadly, the clearance is the rate of elimination divided by the concentration. Read a low clearance as inefficient removal. Broadly, the bioavailability is dose-corrected exposure relative to a reference, in per cent. The low end stands for little systemic uptake, the high end for much systemic uptake. As to `Cc1onc(-c2c(Cl)cccc2Cl)c1NC(=O)OCc1c(F)cccc1Cl`, the Tmax in data set [1] was determined as 19.8 min. Further, in data set [2], the Cmax stood at 7 nM. Besides, in data set [3], the Vd was 3 L/kg. The half-life in data set [4] is 84 min. Further, the figures for the IC50 in data set [5], in data set [7] and in [11] were more than 26300 nM, 5500 nM and 28.2 nM, respectively. Further, the solubility in [6] is less than 1 µM. Moreover, the results for the AUC/dose in the data set on Rattus norvegicus [8] and in the data set with Rattus norvegicus [12] were 0.73 kg·h/L and 0.001 kg·h/L, respectively. The compound also displayed a clearance in [9] of 45 mL/min/kg. Further, the bioavailability in data set [10] turned out to be 0.3%.

On to `Cc1onc(-c2c(Cl)cccc2Cl)c1NC(=O)OCc1ccccc1Cl`, for which the IC50 in [7] was 8710 nM; in [11], 24 nM.

As to `Cc1onc(-c2c(Cl)cccc2Cl)c1NC(=O)OCc1cc(Cl)ccc1Cl`, the IC50 in [7] is 2630 nM; in data set [11] it was 138 nM.

As for `Cc1onc(-c2c(Cl)cccc2Cl)c1NC(=O)OCc1cccc(N(C)C)c1`, the values for the IC50 in data set [7] and in data set [11] were more than 25700 nM and 151 nM, respectively.

With `Cc1onc(-c2c(Cl)cccc2Cl)c1NC(=O)OCc1ccc(OC(C)C)nc1`, the IC50 in data set [7] was 8710 nM; in data set [11], 22.9 nM.

For `Cc1onc(-c2c(Cl)cccc2Cl)c1NC(=O)OCc1ccc(OC2CCCC2)nc1`, the IC50 in data set [7] was 1350 nM; in data set [11] it was 28.8 nM.

On to `Cc1onc(-c2c(Cl)cccc2Cl)c1N(C)C(=O)OCc1ccc(OC(C)C)nc1`, for which the IC50 was more than 28800 nM in data set [7] and 224 nM in data set [11].

For the compound `Cc1onc(-c2c(Cl)cccc2Cl)c1N(C)C(=O)OCc1c(F)cccc1Cl`, the IC50 in data set [7] was more than 33100 nM; in data set [11] it was 302 nM.

As for `CCc1onc(-c2c(Cl)cccc2Cl)c1NC(=O)OCc1c(F)cccc1Cl`, the IC50 in data set [7] is 7240 nM; in [11], 9.33 nM.

With `COCc1onc(-c2c(Cl)cccc2Cl)c1NC(=O)OCc1ccccc1Cl`, the IC50 was more than 28200 nM in [7] and 331 nM in data set [11].

Regarding `O=C(Nc1conc1-c1c(Cl)cccc1Cl)OCc1c(F)cccc1Cl`, in data set [11], the IC50 is 12600 nM.

With `Cc1onc(-c2c(F)cccc2Cl)c1NC(=O)OCc1c(F)cccc1Cl`, the results for the IC50 in data set [7] and in [11] were more than 15800 nM and 72.4 nM, respectively.

Consider `Cc1cccc(C)c1-c1noc(C)c1NC(=O)OCc1c(F)cccc1Cl`, for which the results for the IC50 in [7] and in [11] were 7760 nM and 10.5 nM, respectively.

As for `Cc1onc(-c2c(Cl)cccc2Cl)c1NC(=O)NCc1c(F)cccc1Cl`, the figures for the IC50 in data set [7] and in data set [11] were 8510 nM and 162 nM, respectively.

For `Cc1cccc(C)c1-c1noc(C)c1NC(=O)NCc1c(F)cccc1Cl`, the IC50 is more than 10500 nM in [7] and 38 nM in data set [11].

With `Cc1onc(-c2c(Cl)cccc2Cl)c1N(C)C(=O)NCc1ccc(OC2CCOCC2)nc1`, the figures for the IC50 in data set [7] and in data set [11] were 5890 nM and 170 nM, respectively.

Take `Cc1onc(-c2ccccc2Cl)c1N(C)C(=O)NCc1ccc(OC2CCOCC2)nc1`: the IC50 in data set [7] is more than 33100 nM; in [11], 3630 nM.

Take `Cc1cccc(C)c1-c1noc(C)c1N(C)C(=O)NCc1ccc(OC2CCOCC2)nc1`: the IC50 in data set [7] was more than 33100 nM; in data set [11], 4470 nM.

Regarding `Cc1cccc(C)c1-c1noc(C)c1NC(=O)NCc1ccc(OC(C)C)nc1`, the half-maximal inhibitory concentration (IC50) in data set [7] is 20000 nM; in data set [11], 209 nM.

Take `Cc1onc(-c2c(Cl)cccc2Cl)c1NC(=O)NCc1ccc(-n2cccn2)cc1`: the values for the IC50 in data set [7] and in data set [11] were more than 33100 nM and 263 nM, respectively.

For the compound `Cc1cccc(C)c1-c1noc(C)c1NC(=O)NCc1ccc(-n2cccn2)cc1`, the IC50 in [7] was more than 33100 nM; in data set [11], 1170 nM.

With `Cc1onc(-c2c(Cl)cncc2Cl)c1NC(=O)NCc1ccc(OC(C)C)nc1`, the IC50 in [7] is more than 33100 nM; in [11] it was 12600 nM.

Turning to `Cc1onc(-c2c(Cl)cccc2Cl)c1CC(=O)NCc1ccc(OC(C)C)nc1`, the IC50 is 4680 nM in data set [7] and 126 nM in [11].

By microsomal CLint is commonly meant the capacity of the preparation to metabolise the compound, expressed as a volume cleared per time. A high value points to rapid turnover. Take `Cc1onc(-c2c(Cl)cccc2Cl)c1CC(=O)NCc1ccc(OCC(F)(F)F)nc1`: in data set [1], the Tmax amounted to 18 min. This compound came in with a maximum concentration (Cmax) in [2] of 400 nM. Besides, the intrinsic clearance (microsomal CLint) came out at 64 µL/min/mg in data set [13] and 116 µL/min/mg in data set [14]. In addition, the Vd in [3] is 1.6 L/kg. Further, the half-life in data set [4] is 36 min; in data set [15], 228 min. The figures for the IC50 in data set [5], in [7] and in data set [11] were more than 26300 nM, more than 33100 nM and 178 nM, respectively. The same compound came in with a solubility in data set [6] of 36 µM (≈ 17.1 µg/mL). Also, the AUC/dose stood at 0.46 kg·h/L in the data set on Rattus norvegicus [8] and 0.12 kg·h/L in the data set on Rattus norvegicus [12]. Also, the clearance in data set [9] was 36 mL/min/kg. The bioavailability in [10] was found to be 19%.

For `Cc1cccc(C)c1-c1noc(C)c1CC(=O)NCc1ccc(OCC(F)(F)F)nc1`, the IC50 in data set [7] was more than 33100 nM; in data set [11], 1230 nM.

Consider `Cc1onc(-c2c(Cl)cccc2Cl)c1CC(=O)NCc1ccc(-n2cccn2)cc1`, for which the IC50 in [7] was more than 33100 nM; in [11] it was 851 nM.

For `Cc1cccc(C)c1-c1noc(C)c1CC(=O)NCc1cccc(OCCOCC(F)(F)F)n1`, the IC50 was 12000 nM in data set [7] and 58.9 nM in data set [11].
